Experiments:
[1] = tested on: Alternaria asthma mouse model; assay: Alternaria asthma mouse model: cell counts and cytokines in BALF; assay type: in vivo; conditions: for total cell counts in BALF: 30 and 100 mg/kg once daily for 7 days subcutaneous, vs vehicle P<0.05
Description: The effect of Compound 17 was studied in an Alternaria asthma mouse model. On days 1-5, male Balb/c mice under isoflurane anesthesia were challenged by instilling solution of 5 μg (protein weight) Alternaria in 40 μL of PBS into each nostril. Compound 17 was administered two days prior to Alternaria challenge (defined day as day −1) and animals were treated with vehicle (10% DMSO/45% PEG-400/45% ‘20% HP-3-CD’ in water) or Compound 17 (30 and 100 mg/kg) once daily for 7 days (defined as day −1 to day 5) by subcutaneous injection. Total and differential cell counts of the BALF fluid samples were measured using a XT-2000iV analyzer (Sysmex). Cytokine concentrations of BALF supernatant were measured in samples from all groups using ELISA kit (Biotechne, UK). Statistical significance is calculated using one-way ANOVA followed by Dunnett's post-tests in which the treatment groups were compared to vehicle control (P<0.05).

[2] = molecular target: T1, catalytic domain of human PARP14 (residues 1611 to 1801) with NanoLuc tag (Homo sapiens, UniProt Q460N5); assay: NanoLuc assay for the degradation of PARP14; assay type: cell-based; conditions: Assay A; NanoLuc-PARP14 overexpressed in HEK-293T cells; 2 hours at 37 degrees; luminescence
T1 construct: expressed in transfected cells; host or cells: HEK-293T cells (ATCC), plasmid pRTX240 in pcDNA3.1(-)
T1 sequence (Q460N5 1611-1801): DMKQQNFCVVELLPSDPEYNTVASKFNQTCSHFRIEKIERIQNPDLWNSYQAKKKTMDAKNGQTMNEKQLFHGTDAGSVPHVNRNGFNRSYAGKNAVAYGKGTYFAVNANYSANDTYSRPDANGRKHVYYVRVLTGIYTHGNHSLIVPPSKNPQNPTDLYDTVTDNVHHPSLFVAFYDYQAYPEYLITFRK
In short: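 HEK-293T cells transiently transfected 24 hrs with N-terminal NanoLuc-tagged human PARP14 catalytic domain (residues 1611-1801), then exposed to compound dose response for 2 hours at 37 degrees. NanoGlo luminescence expressed as % of 0.1% DMSO wells; DC50 from floating 4-parameter fit, reported as banded ranges.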

[3] = male Balb/c mice, Alternaria challenge, 30 and 100 mg/kg once daily 7 days s.c., dose-dependent starting from 30 mg/kg

## O=C1CCC(Nc2ccc(C3CCN(CC4CCN(C(=O)CN5CCC(SCc6nc7cc(OCC8CCOCC8)cc(F)c7c(=O)[nH]6)CC5)CC4)CC3)cc2)C(=O)N1 (centres unmarked) [Example 17, 3-((4-(1-((1-(2-(4-(((5-fluoro-4-oxo-7-((tetrahydro-2H-pyran-4-yl)methoxy)-3,4-dihydroquinazolin-2-yl)methyl)thio)piperidin-1-yl)acetyl)piperidin-4-yl)methyl)piperidin-4-yl)phenyl)amino)piperidine-2,6-dione]
[1]; FIG. 2A legend, dose-dependent starting from 100 mg/kg
  eosinophil in BALF: significantly reduces
[1]; FIG. 2B legend, dose-dependent starting from 100 mg/kg
  cytokine IL-33 in BALF: significantly reduces
[1]; FIG. 2C legend, dose-dependent starting from 100 mg/kg
  cytokine IL-4 in BALF: significantly reduces
[1]; FIG. 2D legend, dose-dependent starting from 100 mg/kg
  cytokine IL-5 in BALF: significantly reduces
[1]; [3]
  cytokine IL-4 in BALF: significantly reduces
  cytokine IL-5 in BALF: significantly reduces
  cytokine IL-33 in BALF: significantly reduces
  eosinophils in BALF: significantly reduces
[1]; male Balb/c mice, Alternaria challenge, dose-dependent starting from 30 mg/kg
  total cell counts in BALF: dose-dependent reduction
[1]; male Balb/c mice, Alternaria challenge, dose-dependent starting from 30 mg/kg, listed as Compound 17
  total cell counts in BALF: significantly reduces
[2]
  DC50: < 100 nM

Source: US20240051946A1, “TARGETED PROTEIN DEGRADATION OF PARP14 FOR USE IN THERAPY” (Ribon Therapeutics, Inc., priority 2022, published 2024)
